Measurements from paper PMC7764985 (2020).

Legend:
[1] = tested on: FB1_39 (DNA, aptamer) ATACCAGCTTATTCAATTAATCGCATTACCTTATACCAGCTTATTCAATTACGTCTGCACATACCAGCTTATTCAATTAGATAGTAAGTGCAATCT; experiment: microscale thermophoresis; details: 100 mM NaCl, 2 mM MgCl2, 5 mM KCl, 1 mM CaCl2; 20 mM Tris, pH 7.6, 25 °C; 5 nM aptamer
[2] = tested on: FB1_39t3 (DNA, aptamer) ATACCAGCTTATTCAATTAATCGCATTACCTTATACCAGCTTATTCAATTACGTCTGCACATACCAGCTTATTCAATT; experiment: magnetic beads assay, fluorescence; details: 100 mM NaCl, 2 mM MgCl2, 5 mM KCl, 1 mM CaCl2; immobilised compound; 20 mM Tris, pH 7.6, room temperature; aptamer up to 2000 nM
[3] = tested on: FB1_39 (DNA, aptamer) ATACCAGCTTATTCAATTAATCGCATTACCTTATACCAGCTTATTCAATTACGTCTGCACATACCAGCTTATTCAATTAGATAGTAAGTGCAATCT; experiment: magnetic beads assay, fluorescence; details: 100 mM NaCl, 2 mM MgCl2, 5 mM KCl, 1 mM CaCl2; immobilised compound; 20 mM Tris, pH 7.6, room temperature; aptamer 0.5-100 nM
[4] = tested on: FB1_10 (DNA, aptamer) AGCAGCACAGAGGTCAGATGCGATCTGGATATTATTTTTGATACCCCTTTGGGGAGACATCCTATGCGTGCTACCGTGAA; experiment: magnetic beads assay, fluorescence; details: 100 mM NaCl, 2 mM MgCl2, 5 mM KCl, 1 mM CaCl2; immobilised compound; 20 mM Tris-HCl, 0.02% Tween 20, pH 7.4, room temperature; aptamer up to 2000 nM
[5] = tested on: FB1_10 (DNA, aptamer) AGCAGCACAGAGGTCAGATGCGATCTGGATATTATTTTTGATACCCCTTTGGGGAGACATCCTATGCGTGCTACCGTGAA; experiment: microscale thermophoresis; details: 100 mM NaCl, 2 mM MgCl2, 5 mM KCl, 1 mM CaCl2; 20 mM Tris-HCl, 0.02% Tween 20, pH 7.4, 25 °C; 5 nM aptamer
[6] = tested on: FB1_39t3 (DNA, aptamer) ATACCAGCTTATTCAATTAATCGCATTACCTTATACCAGCTTATTCAATTACGTCTGCACATACCAGCTTATTCAATT; experiment: microscale thermophoresis; details: 100 mM NaCl, 2 mM MgCl2, 5 mM KCl, 1 mM CaCl2; 20 mM Tris, pH 7.6, 25 °C; 5 nM aptamer

- KD [1]: 31 ± 22 nM
- binding [2]: no
- KD [3]: 1.53 ± 0.67 nM
- binding [4]: no
- KD [5]: 162 ± 137 nM
- KD [6]: 2200 ± 1100 nM
Structure (SMILES): CCCC[C@@H](C)[C@@H](OC(=O)C[C@@H](CC(=O)O)C(=O)O)[C@H](C[C@@H](C)C[C@H](O)CCCC[C@@H](O)C[C@H](O)[C@H](C)N)OC(=O)C[C@@H](CC(=O)O)C(=O)O
